Test results as given in US20140135310A1, “SULPHONAMIDE DERIVATIVES OF ALICYCLIC AMINES FOR THE TREATMENT OF CENTRAL NERVOUS SYSTEM DISEASES” (Adamed Sp. z o.o., priority 2011, published 2014).

Experiments:
[1] = molecular target: T1, 5-HT2A receptor (Homo sapiens, UniProt P28223); assay: Radioligand binding assay, serotoninergic 5-HT2A receptors; settings: for Ki: read-out: Inhibition constants Ki, 5-HT2A
T1 construct: purchased PerkinElmer
Outline: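 Radioligand competition binding with scintillation counting; nonspecific binding defined by excess unlabelled ligand. Data as percent inhibition of control specific binding. IC50 by Hill-equation fit of competition curves; Ki by Cheng-Prusoff, with radioligand Kd from Scatchard plot.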

[2] = molecular target: dopaminergic receptors D3 (Homo sapiens, UniProt P35462); assay: Radioligand binding assay, dopaminergic D3 receptors; settings: test compound 1×10^−6 M
Chain of dopaminergic receptors D3 (P35462 whole entry): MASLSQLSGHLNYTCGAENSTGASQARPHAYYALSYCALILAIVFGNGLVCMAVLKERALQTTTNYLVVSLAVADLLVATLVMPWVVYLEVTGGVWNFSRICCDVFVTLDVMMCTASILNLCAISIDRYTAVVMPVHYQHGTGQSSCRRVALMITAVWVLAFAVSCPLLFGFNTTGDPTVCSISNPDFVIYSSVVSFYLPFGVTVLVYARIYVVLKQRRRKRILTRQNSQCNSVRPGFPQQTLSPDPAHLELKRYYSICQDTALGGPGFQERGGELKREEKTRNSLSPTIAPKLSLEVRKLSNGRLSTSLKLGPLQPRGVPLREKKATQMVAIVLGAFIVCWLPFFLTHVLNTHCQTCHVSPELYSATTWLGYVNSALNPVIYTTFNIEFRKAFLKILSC
Outline: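 Competition radioligand binding at human D2, D3 and D4.4 receptors, detected by scintillation counting; nonspecific binding defined with excess unlabelled ligand. Results as percent inhibition of control specific binding; IC50 by Hill-equation nonlinear regression; Ki via Cheng-Prusoff, with radioligand KD from Scatchard plot.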

[3] = molecular target: T2, serotonin transporter (SERT) (Homo sapiens, UniProt P31645); assay: Radioligand binding assay, serotonin transporter (SERT)
T2 construct: expressed in transfected cells; host or cells: CHO cells
T2 sequence (P31645 whole entry): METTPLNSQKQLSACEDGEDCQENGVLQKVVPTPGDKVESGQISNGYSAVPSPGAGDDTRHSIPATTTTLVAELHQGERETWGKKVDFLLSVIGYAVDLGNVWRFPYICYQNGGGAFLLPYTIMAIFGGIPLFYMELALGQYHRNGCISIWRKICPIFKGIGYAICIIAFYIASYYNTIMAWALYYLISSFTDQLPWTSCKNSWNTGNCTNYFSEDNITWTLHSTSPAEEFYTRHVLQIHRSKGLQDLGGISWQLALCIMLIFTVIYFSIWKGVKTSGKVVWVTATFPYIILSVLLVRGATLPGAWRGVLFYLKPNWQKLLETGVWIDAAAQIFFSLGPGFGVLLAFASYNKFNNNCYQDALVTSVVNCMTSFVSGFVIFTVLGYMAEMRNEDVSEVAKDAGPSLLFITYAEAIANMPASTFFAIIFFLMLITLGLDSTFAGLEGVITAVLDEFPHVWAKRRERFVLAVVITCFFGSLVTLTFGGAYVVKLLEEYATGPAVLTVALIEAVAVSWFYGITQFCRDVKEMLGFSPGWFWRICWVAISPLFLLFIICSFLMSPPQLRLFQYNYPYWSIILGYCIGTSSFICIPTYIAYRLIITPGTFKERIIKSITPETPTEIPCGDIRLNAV
Outline: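 Radioligand competition binding with scintillation detection; specific binding is total minus binding under excess unlabelled ligand. Reported as % of control specific binding or % inhibition; IC50 from Hill-equation non-linear regression of competition curves, and Ki via Cheng-Prusoff using radioligand concentration and Scatchard-derived KD.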

[4] = molecular target: T3, 5-HT6 receptor (Homo sapiens, UniProt P50406); assay: Radioligand binding assay, serotoninergic 5-HT6 receptors; settings: for Ki: read-out: Inhibition constants Ki, 5-HT6;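 as to 5-HT6 [%]: test compound at 1 µM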
T3 construct: purchased PerkinElmer
T3 sequence (P50406 whole entry): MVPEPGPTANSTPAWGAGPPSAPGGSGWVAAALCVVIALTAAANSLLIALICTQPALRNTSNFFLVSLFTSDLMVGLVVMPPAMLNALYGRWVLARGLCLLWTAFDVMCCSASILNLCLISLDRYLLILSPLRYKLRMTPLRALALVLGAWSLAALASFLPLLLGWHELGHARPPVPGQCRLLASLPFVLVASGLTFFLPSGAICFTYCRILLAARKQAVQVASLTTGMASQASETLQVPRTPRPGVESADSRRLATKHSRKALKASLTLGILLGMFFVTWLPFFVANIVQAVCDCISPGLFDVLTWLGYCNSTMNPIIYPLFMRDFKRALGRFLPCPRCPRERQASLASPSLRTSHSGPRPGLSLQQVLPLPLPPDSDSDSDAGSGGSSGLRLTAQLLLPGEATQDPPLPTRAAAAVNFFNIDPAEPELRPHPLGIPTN
Outline: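 Values are Ki from Cheng–Prusoff, taking IC50 from Hill nonlinear regression of competition curves and KD from a Scatchard plot. Specific binding was total minus binding with excess unlabelled ligand. Radioligand displacement was detected by scintillation counting, and data were also reported as percent of control specific binding.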

[5] = molecular target: T4, M3 muscarinic receptors (Homo sapiens, UniProt P20309); assay: Radioligand binding assay, muscarinic M3 receptors; settings: test compound 1×10^−6 M
T4 construct: expressed in transfected cells; host or cells: CHO cells
T4 sequence (P20309 whole entry): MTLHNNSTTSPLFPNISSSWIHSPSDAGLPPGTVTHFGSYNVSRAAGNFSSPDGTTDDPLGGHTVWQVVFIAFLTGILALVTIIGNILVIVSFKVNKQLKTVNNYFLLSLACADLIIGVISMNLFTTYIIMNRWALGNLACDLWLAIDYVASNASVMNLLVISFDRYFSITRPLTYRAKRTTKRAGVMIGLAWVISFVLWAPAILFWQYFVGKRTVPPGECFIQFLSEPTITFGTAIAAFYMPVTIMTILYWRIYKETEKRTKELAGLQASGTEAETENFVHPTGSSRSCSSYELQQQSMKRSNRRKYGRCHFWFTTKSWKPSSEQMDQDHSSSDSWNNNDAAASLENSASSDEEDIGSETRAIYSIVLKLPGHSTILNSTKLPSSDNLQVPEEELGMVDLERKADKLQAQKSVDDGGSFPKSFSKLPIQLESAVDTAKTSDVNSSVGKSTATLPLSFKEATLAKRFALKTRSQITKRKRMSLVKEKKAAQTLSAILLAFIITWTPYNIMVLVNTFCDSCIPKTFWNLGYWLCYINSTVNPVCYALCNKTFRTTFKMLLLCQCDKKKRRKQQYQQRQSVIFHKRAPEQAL
Description: (§1) The specific ligand binding to the receptors is defined as the difference between the total binding and the non-specific binding determined in the presence of the excess of unlabelled ligand.
(§2) The results are expressed as a percent of control specific binding ((measured specific binding/control specific binding)×100) and as a percent inhibition of control specific binding (100−((measured specific binding/control specific binding)×100)) obtained in the presence of the test compounds. The specific ligand binding to the receptors is defined as the difference between the total binding and the nonspecific binding determined in the presence of an excess of unlabelled ligand. Scintillation counting was the method of detection of ligand binding. The IC50 values (concentration causing a half-maximal inhibition of control specific binding) were determined by non-linear regression analysis of the competition curves generated with mean replicate values using Hill equation curve fitting (Y=D+[(A−D)/(1+(C/C50)nH)], where Y=specific binding, D=minimum specific binding, A=maximum specific binding, C=compound concentration, C50=IC50, and nH=slope factor). This analysis was performed using a software developed at Cerep (Hill software) and validated by comparison with data generated by the commercial software SigmaPlot® 4.0 for Windows® (© 1997 by SPSS Inc.). The inhibition constants (Ki) were calculated using the Cheng Prusoff equation (Ki=IC50/(1+(L/KD)), where L=concentration of radioligand in the assay, and KD=affinity of the radioligand for the receptor). A scatchard plot was used to determine the Kd.
Experimental conditions for tests are given in Table 10, and results of tests for representative compounds are given in Table 11.

[6] = molecular target: dopaminergic receptors D2 (Homo sapiens, UniProt P14416); assay: Radioligand binding assay, dopaminergic D2 receptors; settings: for Ki: read-out: Inhibition constants Ki for D2 receptors, D2
Chain of dopaminergic receptors D2 (P14416 whole entry): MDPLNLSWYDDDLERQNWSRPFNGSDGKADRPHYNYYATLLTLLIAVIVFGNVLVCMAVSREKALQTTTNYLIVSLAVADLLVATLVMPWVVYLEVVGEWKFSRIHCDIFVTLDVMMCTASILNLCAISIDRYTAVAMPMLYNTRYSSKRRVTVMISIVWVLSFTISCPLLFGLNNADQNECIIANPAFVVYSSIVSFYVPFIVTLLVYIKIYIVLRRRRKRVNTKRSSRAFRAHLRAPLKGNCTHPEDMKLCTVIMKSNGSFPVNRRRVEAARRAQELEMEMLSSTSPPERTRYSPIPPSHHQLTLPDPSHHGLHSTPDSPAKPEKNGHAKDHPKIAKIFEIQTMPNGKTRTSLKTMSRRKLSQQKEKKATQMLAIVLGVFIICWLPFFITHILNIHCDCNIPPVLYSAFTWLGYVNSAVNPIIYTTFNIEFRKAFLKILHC
Outline: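 Radioligand displacement was measured by scintillation counting, with non-specific binding defined in the presence of excess unlabelled ligand. Competition curves were fitted to the Hill equation to give IC50, and Ki was derived by the Cheng–Prusoff equation.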

[7] = molecular target: T5, receptors D4.4 (Homo sapiens, UniProt P21917); assay: Radioligand binding assay, dopaminergic D4 (D4.4) receptors; settings: test compound 1×10^−6 M
T5 sequence (P21917 1-419): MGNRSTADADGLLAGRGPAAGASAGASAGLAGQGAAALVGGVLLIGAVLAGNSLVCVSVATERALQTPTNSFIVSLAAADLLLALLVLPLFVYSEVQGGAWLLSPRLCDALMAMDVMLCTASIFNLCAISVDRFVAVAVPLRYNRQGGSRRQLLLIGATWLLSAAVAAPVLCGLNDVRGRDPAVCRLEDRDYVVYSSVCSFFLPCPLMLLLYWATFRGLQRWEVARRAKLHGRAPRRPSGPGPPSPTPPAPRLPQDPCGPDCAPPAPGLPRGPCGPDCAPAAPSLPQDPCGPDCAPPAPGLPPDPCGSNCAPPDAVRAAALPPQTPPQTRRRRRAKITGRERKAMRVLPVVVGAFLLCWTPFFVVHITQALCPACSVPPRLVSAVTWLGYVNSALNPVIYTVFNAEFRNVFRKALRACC
Description: as §1, §2
Experimental conditions for tests are given in Table 1, the results of tests for representative compounds are given in Tables 2a and 2b (receptors D2 and D3) and in Table 3 (receptors D4).

[8] = molecular target: T6, H1 histaminergic receptors (Homo sapiens, UniProt P35367); assay: Radioligand binding assay, histaminergic H1 receptors; settings: human recombinant (HEK-293 cells), [3H]pyrilamine 1 nM
T6 construct: expressed in transfected cells; host or cells: HEK-293 cells
T6 sequence (P35367 whole entry): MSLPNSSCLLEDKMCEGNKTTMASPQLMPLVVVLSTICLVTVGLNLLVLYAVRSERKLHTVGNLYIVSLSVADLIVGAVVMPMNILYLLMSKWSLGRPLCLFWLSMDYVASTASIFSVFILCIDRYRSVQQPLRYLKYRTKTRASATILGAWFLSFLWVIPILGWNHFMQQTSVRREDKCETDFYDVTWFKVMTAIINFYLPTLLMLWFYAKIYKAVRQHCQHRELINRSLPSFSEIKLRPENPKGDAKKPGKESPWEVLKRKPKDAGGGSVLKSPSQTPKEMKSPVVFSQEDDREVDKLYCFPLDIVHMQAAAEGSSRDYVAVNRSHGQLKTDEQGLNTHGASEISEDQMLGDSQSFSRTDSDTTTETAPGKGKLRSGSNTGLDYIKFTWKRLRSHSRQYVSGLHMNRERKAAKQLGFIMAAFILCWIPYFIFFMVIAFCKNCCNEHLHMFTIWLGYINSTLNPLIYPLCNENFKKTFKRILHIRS
Description: as §1, §2
Experimental conditions for tests are given in Table 14, and results of tests for representative compounds are presented in Table 15.

[9] = tested on: α1 adrenergic receptors (rat cerebral cortex); assay: Radioligand binding assay, adrenergic α1 receptors; settings: test compound 1×10^−6 M
Outline: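 Values derive from radioligand displacement, with non-specific binding defined by excess cold ligand and detection by scintillation. Hill-fit IC50s were converted to Ki via Cheng-Prusoff using Scatchard-derived Kd; percent inhibition of control specific binding also reported.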

[10] = binding assay result in %, Table 5a
[11] = binding assay, test compound 1×10^−6 M

T1 sequence (P28223 whole entry): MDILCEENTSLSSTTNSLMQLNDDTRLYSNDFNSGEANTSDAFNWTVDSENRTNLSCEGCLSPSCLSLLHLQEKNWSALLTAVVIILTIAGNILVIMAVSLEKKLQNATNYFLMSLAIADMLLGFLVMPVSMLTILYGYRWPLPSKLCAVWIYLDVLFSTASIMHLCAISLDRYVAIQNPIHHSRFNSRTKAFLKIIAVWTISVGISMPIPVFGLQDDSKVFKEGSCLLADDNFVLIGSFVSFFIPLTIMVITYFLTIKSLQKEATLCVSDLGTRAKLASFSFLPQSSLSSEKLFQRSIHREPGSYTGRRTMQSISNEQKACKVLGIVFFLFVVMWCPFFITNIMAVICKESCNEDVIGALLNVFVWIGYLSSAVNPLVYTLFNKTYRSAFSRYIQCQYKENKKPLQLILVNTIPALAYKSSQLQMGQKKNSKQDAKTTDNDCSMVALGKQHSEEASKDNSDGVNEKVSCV

| SMILES | inhibition at 1 µM [1, 10] | inhibition at 1 µM [2] | inhibition at 1 µM [3, 11] | inhibition at 1 µM [4, 10] | inhibition at 1 µM [5] | inhibition at 1 µM [6, 11] | inhibition at 1 µM [7] | inhibition at 1 µM [8] | α1 [%] [9] | Ki ([3]; read-out: Inhibition constants Ki for SERT, SERT) | Ki [4] | Ki [1] | Ki [6] | 5-HT2A [%] [1, 10] | D3 [%] [2] | SERT [%] [3, 11] | 5-HT6 [%] [4, 10] | M3 [%] [5] | D2 [%] [6, 11] | D4.4 [%] [7] |
| --- | --- | --- | --- | --- | --- | --- | --- | --- | --- | --- | --- | --- | --- | --- | --- | --- | --- | --- | --- | --- |
| Cn1ccc2cc(S(=O)(=O)NC3CCN(CCCc4noc5cc(F)ccc45)C3)ccc21 (stereo not drawn) [Compound 218, N-[1-[3-(6-Fluoro-1,2-benzoxazol-3-yl)propyl]pyrrolidin-3-yl]-1-methyl-indole-5-sulphonamide] | 100% | 95% | 95% | 95% | 0% | 99% | 86% | 77% | – | – | – | – | – | – | – | – | – | – | – | – |
| O=S(=O)(NC1CN(CCOc2cccc3[nH]ccc23)C1)c1cccc2ccccc12 [Compound 49, N-[1-[2-(1H-Indol-4-yloxy)ethyl]azetidin-3-yl]naphthalene-1-sulphonamide] | 82% | 106% | 41% | 34% | 11% | 99% | 82% | – | 89% | – | – | – | – | – | – | – | – | – | – | – |
| Cc1ccc2sc(S(=O)(=O)NC3CCN(CCCc4noc5cc(F)ccc45)C3)cc2c1 (stereo not drawn) [Compound 226, N-[1-[3-(6-Fluoro-1,2-benzoxazol-3-yl)propyl]pyrrolidin-3-yl]-5-methylbenzothiophene-2-sulphonamide] | – | 95% | 54% | 92% | 8% | 99% | 69% | 73% | 73% | – | – | – | – | – | – | – | – | – | – | – |
| O=S(=O)(NCC1CCN(CCCc2noc3cc(F)ccc23)C1)c1cccc2ccccc12 (stereo not drawn) [Compound 239, N-[[1-[3-(6-Fluoro-1,2-benzoxazol-3-yl)propyl]pyrrolidin-3-yl]methyl]naphthalene-1-sulphonamide] | 98% | 76% | 36% | 97% | 23% | 96% | 78% | – | 91% | – | – | – | – | – | – | – | – | – | – | – |
| O=S(=O)(NC1CCN(CCCc2c[nH]c3ccc(F)cc23)C1)c1ccc2ccccc2c1 (stereo not drawn) [Compound 80, N-[1-[3-(5-Fluoro-1H-indol-3-yl)propyl]pyrrolidin-3-yl]naphthalene-2-sulphonamide] | 100% | 100% | 104% | 96% | 2% | 96% | 91% | – | 50% | 0.5 nM | 15 nM | – | – | – | – | – | – | – | – | – |
| Cc1c(S(=O)(=O)N[C@@H]2CCN(CCCc3noc4cc(F)ccc34)C2)sc2ccc(Cl)cc12 [Compound 204, 5-Chloro-N-[(3R)-1-[3-(6-fluoro-1,2-benzoxazol-3-yl)propyl]pyrrolidin-3-yl]-3-methyl-benzothiophene-2-sulphonamide] | – | 96% | 70% | 97% | 17% | 98% | 71% | – | 76% | – | 6.9 nM | 0.8 nM | 0.4 nM | – | – | – | – | – | – | – |
| Cc1c(S(=O)(=O)N[C@@H]2CCN(CCCc3noc4cc(F)ccc34)C2)sc2ccc(F)cc12 [Compound 202, 5-Fluoro-N-[(3R)-1-[3-(6-fluoro-1,2-benzoxazol-3-yl)propyl]pyrrolidin-3-yl]-3-methyl-benzothiophene-2-sulphonamide] | 99% | 96% | 58% | 100% | 9% | 101% | 76% | – | 98% | – | 7.1 nM | 1.4 nM | 1.2 nM | – | – | – | – | – | – | – |
| O=S(=O)(NC1CCN(CCOc2nsc3ccccc23)C1)c1ccc2ccccc2c1 (stereo not drawn) [Compound 39, N-[1-[2-(1,2-Benzothiazol-3-yloxy)ethyl]pyrrolidin-3-yl]naphthalene-2-sulphonamide] | 99% | 95% | 29% | 92% | 19% | 86% | 73% | – | 29% | – | – | – | – | – | – | – | – | – | – | – |
| Cc1ccc2sc(S(=O)(=O)N[C@@H]3CCN(CCCc4noc5cc(F)ccc45)C3)cc2c1 [Compound 228, N-[(3R)-1-[3-(6-Fluoro-1,2-benzoxazol-3-yl)propyl]pyrrolidin-3-yl]-5-methyl-benzothiophene-2-sulphonamide] | – | 97% | 61% | 100% | 12% | 100% | 68% | – | 88% | – | 14 nM | 1 nM | 0.7 nM | – | – | – | – | – | – | – |
| O=S(=O)(NC1CN(CCOc2cccc3c2OCCO3)C1)c1cccc2ccccc12 [Compound 94, N-[1-[2-(2,3-Dihydro-1,4-benzodioxan-8-yloxy)ethyl]azetidin-3-yl]-naphthalene-1-sulphonamide] | – | – | – | – | – | – | – | – | 87% | – | – | – | – | 99% | 105% | 62% | 65% | 1% | 102% | 90% |
| O=S(=O)(N[C@@H]1CCN(CCCc2noc3cc(F)ccc23)C1)c1ccc2cc(Cl)ccc2c1 [Compound 200, 6-Chloro-N-[(3R)-1-[3-(6-fluoro-1,2-benzoxazol-3-yl)propyl]pyrrolidin-3-yl]naphthalene-2-sulphonamide] | 99% | 94% | 74% | 99% | 3% | 100% | 49% | – | 85% | – | 10 nM | 2.3 nM | 0.1 nM | – | – | – | – | – | – | – |
| O=S(=O)(N[C@@H]1CCN(CCCc2noc3cc(F)ccc23)C1)c1ccc2ccccc2c1 [Compound 206, N-[(3R)-1-[3-(6-Fluoro-1,2-benzoxazol-3-yl)propyl]pyrrolidin-3-yl]naphthalene-2-sulphonamide] | 100% | 95% | 62% | 101% | 9% | 101% | 87% | – | 93% | – | 6.1 nM | 0.7 nM | 0.3 nM | – | – | – | – | – | – | – |
